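Interpolation was linear, between the two tested concentrations surrounding the appropriate level; five concentrations were tested over 48 hours in 96-well plates. The concentration for 50% growth inhibition is given as GI50.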 Active and inactive are the calls of the source. Cut-off read from the data, not from the text of the source: active = GI50 up to about 1.1 µM and inactive = higher.
Experiments:
Assay in all cases: NCI tumour cell line growth inhibition, 48 h
DU-145 = tested on: DU-145
SK-MEL-5 = tested on: SK-MEL-5
786-0 = tested on: 786-0
A498 = tested on: A498
MDA-MB-435 = tested on: MDA-MB-435
KM-20L2 = tested on: KM-20L2
HCT-15 = tested on: HCT-15
MOLT-4 = tested on: MOLT-4
M19-MEL = tested on: M19-MEL
UO-31 = tested on: UO-31
BT-549 = tested on: BT-549
SF-295 = tested on: SF-295
UACC-62 = tested on: UACC-62
SK-MEL-2 = tested on: SK-MEL-2
LXFL 529 = tested on: LXFL 529
PC-3 = tested on: PC-3
ACHN = tested on: ACHN
RPMI-8226 = tested on: RPMI-8226
CCRF-CEM = tested on: CCRF-CEM
HOP-92 = tested on: HOP-92
SNB-19 = tested on: SNB-19
HCC 2998 = tested on: HCC 2998
EKVX = tested on: EKVX
HL-60 = tested on: HL-60
SK-MEL-28 = tested on: SK-MEL-28
MDA-MB-231 = tested on: MDA-MB-231
HCT-116 = tested on: HCT-116
HOP-18 = tested on: HOP-18
NCI-H23 = tested on: NCI-H23
NCI-H460 = tested on: NCI-H460
XF498 = tested on: XF498
LOX IMVI = tested on: LOX IMVI
SK-OV-3 = tested on: SK-OV-3
COLO 205 = tested on: COLO 205
M14 = tested on: M14
IGROV-1 = tested on: IGROV-1
SW-620 = tested on: SW-620
CAKI-1 = tested on: CAKI-1
Malme-3M = tested on: Malme-3M
DLD-1 = tested on: DLD-1
OVCAR-4 = tested on: OVCAR-4
HT-29 = tested on: HT-29
K562 = tested on: K562
U-251 = tested on: U-251
SF-539 = tested on: SF-539
SR = tested on: SR
UACC-257 = tested on: UACC-257
RXF 393 = tested on: RXF 393
MDA-N = tested on: MDA-N
SF-268 = tested on: SF-268
SNB-78 = tested on: SNB-78
NCI-H522 = tested on: NCI-H522
A549 = tested on: A549
SN12C = tested on: SN12C
OVCAR-8 = tested on: OVCAR-8
Hs-578T = tested on: Hs-578T
DMS-114 = tested on: DMS-114
NCI-H226 = tested on: NCI-H226
KM12 = tested on: KM12
OVCAR-3 = tested on: OVCAR-3
HOP-62 = tested on: HOP-62
TK-10 = tested on: TK-10
T47D = tested on: T47D
SNB-75 = tested on: SNB-75
MCF7 = tested on: MCF7
OVCAR-5 = tested on: OVCAR-5

With `COC(=O)C1=C(C(=O)OC)C(C(=O)OC)C(C(=O)OC)C(C(=O)OC)(C(=O)OC)C(C(=O)OC)=C1C(=O)OC` (centres undefined) the GI50 (DU-145) was 18.2 µM (inactive), the GI50 (SK-MEL-5) was 17.2 µM (inactive) and the GI50 (786-0) was 9.14 µM (inactive). The GI50 (A498) was 15.5 µM (inactive), the GI50 (MDA-MB-435) was 18.7 µM (inactive) and the GI50 (KM-20L2) was 17.7 µM (inactive). For the same compound, the GI50 (HCT-15) was 8.39 µM, the GI50 (MOLT-4) was 2.59 µM (inactive) and the GI50 (M19-MEL) was 12.8 µM (inactive). For the same compound, the GI50 (UO-31) was 16.3 µM (inactive), the GI50 (BT-549) was 18.2 µM (inactive) and the GI50 (SF-295) was 19.2 µM (inactive). The GI50 (UACC-62) was 15.5 µM (inactive), the GI50 (SK-MEL-2) was 17.9 µM (inactive) and the GI50 (LXFL 529) was 9.73 µM (inactive). The GI50 (PC-3) was 16.5 µM (inactive), the GI50 (ACHN) was 14.7 µM (inactive) and the GI50 (RPMI-8226) was 2.24 µM (inactive). For the same compound, the GI50 (CCRF-CEM) was 2.77 µM (inactive), the GI50 (HOP-92) was 6.89 µM (inactive) and the GI50 (SNB-19) was 17.6 µM (inactive). The GI50 (HCC 2998) was 16.9 µM (inactive), the GI50 (EKVX) was 18.3 µM (inactive) and the GI50 (HL-60) was 1.97 µM (inactive). The GI50 (SK-MEL-28) was 15.1 µM (inactive), the GI50 (MDA-MB-231) was 20.9 µM (inactive) and the GI50 (HCT-116) was 7.36 µM (inactive). The GI50 (HOP-18) was 17.1 µM (inactive), the GI50 (NCI-H23) was 18.6 µM (inactive) and the GI50 (NCI-H460) was 19 µM (inactive). For the same compound, the GI50 (XF498) was 12.2 µM (inactive), the GI50 (LOX IMVI) was 13.5 µM (inactive) and the GI50 (SK-OV-3) was 27 µM (inactive). For the same compound, the GI50 (COLO 205) was 4.27 µM (inactive), the GI50 (M14) was 15.1 µM (inactive) and the GI50 (IGROV-1) was 18.1 µM (inactive). The GI50 (SW-620) was 5.08 µM (inactive), the GI50 (CAKI-1) was 15.1 µM (inactive) and the GI50 (Malme-3M) was 5.77 µM (inactive). For the same compound, the GI50 (DLD-1) was 1.81 µM (inactive), the GI50 (OVCAR-4) was 22.8 µM (inactive) and the GI50 (HT-29) was 13.3 µM (inactive). The GI50 (K562) was 3.4 µM (inactive), the GI50 (U-251) was 16.9 µM (inactive) and the GI50 (SF-539) was 17.7 µM (inactive). The GI50 (SR) was 0.285 µM (active), the GI50 (UACC-257) was 13.9 µM (inactive) and the GI50 (RXF 393) was 7.43 µM (inactive). For the same compound, the GI50 (MDA-N) was 17.1 µM (inactive), the GI50 (SF-268) was 19 µM (inactive) and the GI50 (SNB-78) was 18.4 µM (inactive). The GI50 (NCI-H522) was 1.96 µM (inactive), the GI50 (A549) was 21.2 µM (inactive) and the GI50 (SN12C) was 14.3 µM (inactive). For the same compound, the GI50 (OVCAR-8) was 11.8 µM (inactive), the GI50 (Hs-578T) was 34.5 µM (inactive) and the GI50 (DMS-114) was 8.91 µM (inactive). The GI50 (NCI-H226) was 15.9 µM (inactive), the GI50 (KM12) was 17.1 µM (inactive) and the GI50 (OVCAR-3) was 15.1 µM (inactive). The GI50 (HOP-62) was 32.3 µM (inactive), the GI50 (TK-10) was 15.6 µM (inactive) and the GI50 (T47D) was 21.9 µM (inactive). The GI50 (SNB-75) was 19.2 µM (inactive), the GI50 (MCF7) was 15.4 µM (inactive) and the GI50 (OVCAR-5) was 19.3 µM (inactive).

With `Cc1c(C(=N)N)oc2ccccc12` the GI50 (SK-MEL-5) was > 100 µM (inactive), the GI50 (786-0) was > 100 µM (inactive) and the GI50 (A498) was > 100 µM (inactive). The GI50 (KM-20L2) was > 100 µM (inactive), the GI50 (MOLT-4) was > 100 µM (inactive) and the GI50 (M19-MEL) was > 100 µM (inactive). The GI50 (UO-31) was > 100 µM (inactive), the GI50 (SF-295) was > 100 µM (inactive) and the GI50 (UACC-62) was > 100 µM (inactive). The GI50 (LXFL 529) was > 100 µM (inactive), the GI50 (ACHN) was > 100 µM (inactive) and the GI50 (CCRF-CEM) was > 100 µM (inactive). For the same compound, the GI50 (HOP-92) was > 100 µM (inactive), the GI50 (SNB-19) was > 100 µM (inactive) and the GI50 (HCC 2998) was > 100 µM (inactive). The GI50 (EKVX) was > 100 µM (inactive), the GI50 (HL-60) was > 100 µM (inactive) and the GI50 (SK-MEL-28) was > 100 µM (inactive). The GI50 (HCT-116) was > 100 µM (inactive), the GI50 (HOP-18) was > 100 µM (inactive) and the GI50 (NCI-H23) was > 100 µM (inactive). The GI50 (NCI-H460) was > 100 µM (inactive), the GI50 (XF498) was 21.4 µM (inactive) and the GI50 (LOX IMVI) was > 100 µM (inactive). For the same compound, the GI50 (SK-OV-3) was > 100 µM (inactive), the GI50 (COLO 205) was > 100 µM (inactive) and the GI50 (M14) was > 100 µM (inactive). For the same compound, the GI50 (IGROV-1) was > 100 µM (inactive), the GI50 (SW-620) was > 100 µM (inactive) and the GI50 (CAKI-1) was > 100 µM (inactive). The GI50 (Malme-3M) was > 100 µM (inactive), the GI50 (DLD-1) was > 100 µM (inactive) and the GI50 (OVCAR-4) was > 100 µM (inactive). The GI50 (HT-29) was > 100 µM (inactive), the GI50 (K562) was > 100 µM (inactive) and the GI50 (U-251) was > 100 µM (inactive). The GI50 (SF-539) was > 100 µM (inactive), the GI50 (SR) was > 100 µM (inactive) and the GI50 (UACC-257) was > 100 µM (inactive). The GI50 (RXF 393) was > 100 µM (inactive), the GI50 (SF-268) was > 100 µM (inactive) and the GI50 (SNB-78) was > 100 µM (inactive). The GI50 (NCI-H522) was > 100 µM (inactive), the GI50 (A549) was > 100 µM (inactive) and the GI50 (SN12C) was > 100 µM (inactive). For the same compound, the GI50 (OVCAR-8) was > 100 µM (inactive), the GI50 (DMS-114) was > 100 µM (inactive) and the GI50 (NCI-H226) was > 100 µM (inactive). The GI50 (KM12) was > 100 µM (inactive), the GI50 (OVCAR-3) was > 100 µM (inactive) and the GI50 (HOP-62) was > 100 µM (inactive). The GI50 (TK-10) was > 100 µM (inactive) and the GI50 (SNB-75) was 79.6 µM (inactive).
